Laboratory results published in ChEMBL document CHEMBL1201862, “PubChem BioAssay data set” (2004).
Calls of active or inactive are those of the source.

What was measured:
HEK293 = experiment: Fluorescence-based counterscreen for potentiators or agonists of NPY-Y2: cell-based high-throughput dose response assay to identify inhibitors of cyclic nucleotide gated ion channel (CNGC) activity. In this assay, the parental HEK293 cell line transfected with a cyclic-nucleotide gated ion channel (CNGC)-based cAMP sensor is used to measure inhibition of isoproterenol-induced CNGC activity by test compound.; type: functional; details: Homo sapiens;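 further: stimulus is 1 µM isoproterenol at EC100 plus PDE inhibitor Ro 20-1724 at 25 µM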
[1] = target: T1, Neuropeptide Y receptor type 1 (Homo sapiens, UniProt P25929); experiment: Fluorescence-based counterscreen for agonists of NPY-Y2: cell-based high-throughput dose response assay for agonists of NPY-Y1.; type: functional
T1 sequence (P25929 whole entry): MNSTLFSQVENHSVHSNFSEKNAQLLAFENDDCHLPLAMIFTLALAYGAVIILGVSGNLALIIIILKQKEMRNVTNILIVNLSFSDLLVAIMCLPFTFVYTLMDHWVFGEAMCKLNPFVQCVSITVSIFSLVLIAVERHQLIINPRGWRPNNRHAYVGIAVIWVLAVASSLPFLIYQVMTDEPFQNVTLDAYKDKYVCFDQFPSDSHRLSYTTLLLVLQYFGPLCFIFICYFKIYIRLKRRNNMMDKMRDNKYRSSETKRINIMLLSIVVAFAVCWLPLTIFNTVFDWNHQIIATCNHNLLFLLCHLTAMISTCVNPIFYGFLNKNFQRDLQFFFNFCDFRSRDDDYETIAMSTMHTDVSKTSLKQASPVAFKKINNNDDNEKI

[2] = Luminescence Cell-Based Dose Confirmation HTS to Identify Inhibitors of Platelet Dense Granule Release. [Related pubchem assays: 1663 (Primary HTS), 1678 (Summary of Project)]; type: functional
[3] = target: T2, Neuropeptide Y receptor type 2 (Homo sapiens, UniProt P49146); experiment: Fluorescence-based cell-based high-throughput dose response assay for agonists of NPY-Y2. [Related pubchem assays: 1703 (Screening assay (CNGC inhibitors).), 1359 (Screening assay (NPY-Y2 potentiators or agonists).), 1304 (Screening assay (NPY-Y1 potentiators or agonists).), 1710 (Screening assay (NPY-Y2 agonists).), 1791 (Summary AID.)]; type: functional
T2 sequence (P49146 whole entry): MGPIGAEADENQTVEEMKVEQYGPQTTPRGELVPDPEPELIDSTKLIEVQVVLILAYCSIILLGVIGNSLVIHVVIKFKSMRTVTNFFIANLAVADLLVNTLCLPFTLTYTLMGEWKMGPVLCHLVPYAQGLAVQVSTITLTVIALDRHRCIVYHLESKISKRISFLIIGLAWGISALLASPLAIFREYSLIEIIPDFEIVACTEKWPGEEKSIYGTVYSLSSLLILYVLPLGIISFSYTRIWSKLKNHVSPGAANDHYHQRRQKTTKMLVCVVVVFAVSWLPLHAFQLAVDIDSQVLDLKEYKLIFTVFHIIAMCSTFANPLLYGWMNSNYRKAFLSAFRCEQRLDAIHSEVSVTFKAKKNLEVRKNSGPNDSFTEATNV

[4] = target: Luciferin 4-monooxygenase (Photinus pyralis, UniProt P08659); experiment: firefly luciferase enzyme inhibitors, dose response, biochemical, luminescence (AID 1891)
Paired box protein Pax-8 = Paired box protein Pax-8 (Homo sapiens, UniProt Q06710); experiment: inhibitors of PAX8-driven TPO luciferase reporter, dose response, RMG-I cells, cherry-pick (AID 687027); type: functional, cell-based;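 further: luciferase reporter driven by Pax8 target thyroperoxidase promoter measured by SteadyGlo luminescence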
[5] = target: T3, Neuropeptides B/W receptor type 1 (Homo sapiens, UniProt P48145); experiment: Fluorescence-based dose response cell-based high throughput screening assay to identify antagonists of the G-protein coupled receptor 7 (GPR7). [Related pubchem assays: 1952 (Screening assay (GPR7 antagonists).), 1880 (Summary AID.)]; type: functional
T3 sequence (P48145 whole entry): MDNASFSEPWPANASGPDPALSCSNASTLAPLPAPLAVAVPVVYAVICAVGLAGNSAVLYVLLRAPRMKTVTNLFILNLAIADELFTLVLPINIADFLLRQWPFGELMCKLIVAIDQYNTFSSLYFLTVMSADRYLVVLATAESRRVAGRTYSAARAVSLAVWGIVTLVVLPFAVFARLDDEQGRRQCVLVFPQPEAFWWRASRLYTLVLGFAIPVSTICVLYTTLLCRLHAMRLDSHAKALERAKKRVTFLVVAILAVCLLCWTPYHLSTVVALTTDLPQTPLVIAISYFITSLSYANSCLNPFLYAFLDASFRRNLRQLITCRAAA

[6] = target: Melanin-concentrating hormone receptor 1 (Homo sapiens, UniProt Q99705); experiment: Fluorescence-based counterscreen for antagonists of the G-protein coupled receptor 7 (GPR7): cell-based high throughput dose response assay to identify antagonists of the melanin-concentrating hormone receptor 1 (MCHR1).; type: functional
[7] = target: T4, Eukaryotic translation initiation factor 2-alpha kinase 3 (Homo sapiens, UniProt Q9NZJ5); experiment: Dose response cell-based high-throughput screening assay to measure PERK inhibition. [Related pubchem assays: 1416 ]; type: functional
T4 sequence (Q9NZJ5 whole entry): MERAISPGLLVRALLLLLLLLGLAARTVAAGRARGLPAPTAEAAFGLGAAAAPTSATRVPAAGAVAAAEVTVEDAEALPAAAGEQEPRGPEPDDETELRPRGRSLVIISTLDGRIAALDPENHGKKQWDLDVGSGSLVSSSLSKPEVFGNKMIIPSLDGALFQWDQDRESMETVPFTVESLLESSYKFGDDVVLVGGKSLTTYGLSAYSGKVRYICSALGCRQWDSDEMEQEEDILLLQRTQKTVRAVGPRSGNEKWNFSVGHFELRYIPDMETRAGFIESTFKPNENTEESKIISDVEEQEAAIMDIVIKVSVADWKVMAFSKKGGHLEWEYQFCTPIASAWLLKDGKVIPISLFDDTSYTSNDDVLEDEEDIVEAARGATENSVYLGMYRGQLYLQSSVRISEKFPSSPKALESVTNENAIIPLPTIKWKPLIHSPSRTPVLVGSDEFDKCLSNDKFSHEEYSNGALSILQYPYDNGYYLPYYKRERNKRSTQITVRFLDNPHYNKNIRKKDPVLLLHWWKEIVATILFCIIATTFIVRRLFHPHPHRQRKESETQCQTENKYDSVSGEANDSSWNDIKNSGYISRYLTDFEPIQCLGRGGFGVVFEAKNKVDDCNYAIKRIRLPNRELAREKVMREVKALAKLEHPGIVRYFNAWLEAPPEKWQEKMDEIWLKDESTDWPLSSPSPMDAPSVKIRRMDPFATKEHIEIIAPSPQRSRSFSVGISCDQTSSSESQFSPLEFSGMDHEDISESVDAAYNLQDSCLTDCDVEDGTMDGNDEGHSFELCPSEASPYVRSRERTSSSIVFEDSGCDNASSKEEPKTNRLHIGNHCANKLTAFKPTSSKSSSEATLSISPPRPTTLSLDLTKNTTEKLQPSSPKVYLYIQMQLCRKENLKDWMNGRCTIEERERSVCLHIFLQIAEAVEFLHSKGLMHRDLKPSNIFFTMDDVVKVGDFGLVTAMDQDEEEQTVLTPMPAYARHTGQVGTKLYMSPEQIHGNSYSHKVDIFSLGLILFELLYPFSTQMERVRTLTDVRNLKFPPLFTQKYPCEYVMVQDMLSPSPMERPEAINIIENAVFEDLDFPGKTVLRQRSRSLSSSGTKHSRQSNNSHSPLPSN

[8] = target: T4, Eukaryotic translation initiation factor 2-alpha kinase 3; experiment: Counterscreen assay for PERK inhibitors: Dose response cell-based high throughput screening assay to measure inhibition of PERK at 6 hours. [Related pubchem assays: 1522, 1416 ]; type: functional
[9] = target: Lysosomal acid glucosylceramidase (Homo sapiens, UniProt P04062); experiment: Dose response cell-based high throughput screening assay to identify enhancers of beta-glucosidase activity. [Related pubchem assays: 784 ]; type: functional
[10] = target: Eukaryotic translation initiation factor 4H (Homo sapiens, UniProt Q15056); experiment: human eIF4H binding inhibitors, primary screen, translation initiation inhibitor project, biochemical, uHTS, fluorescence polarization (AID 2012)
[11] = target: Polyadenylate-binding protein 1 (Homo sapiens, UniProt P11940); experiment: PABP poly(A) RNA binding inhibitors, primary screen, biochemical, fluorescence polarization, uHTS (AID 2014)
[12] = Luminescence Cell-Based Dose Confirmation HTS to Identify Activators of 5'UTR Stem-Loop Driven Alpha-Synuclein mRNA Translation in H4 Neuroglioblastoma Cells. [Related pubchem assays: 1829 (Project Summary), 1814 (Primary HTS)]; type: functional
H4 = experiment: Luminescence Cell-Based Dose Response HTS to Identify Activators of 5'UTR Stem-Loop Driven Prion Protein mRNA Translation in H4 Neuroglioblastoma Cells. [Related pubchem assays: 1829 (Project Summary), 1814 (Primary HTS)]; type: functional; details: Homo sapiens
[13] = Luminescence Cell-Based Dose Response HTS to Identify Activators of Luciferase Translation or Activity in H4 […] Cells. [Related pubchem assays: 1829 (Project Summary), 1814 (Primary HTS)]; type: functional
[14] = HEp-2 cell cytotoxicity, dose response, cytotoxicity control for RSV inhibitor project, HTS (AID 2410); type: functional; details: human respiratory syncytial virus
[15] = microbe, parasite or virus in culture; type: functional; details: Mycobacterium tuberculosis
[16] = target: DNA dC->dU-editing enzyme APOBEC-3A (Homo sapiens, UniProt P31941); experiment: Dose Response confirmation of small molecule APOBEC3A DNA Deaminase Inhibitors via a fluorescence-based single-stranded DNA deaminase assay. [Related pubchem assays (depositor defined):AID493011, AID493024]; type: functional
[17] = target: DNA dC->dU-editing enzyme APOBEC-3G (Homo sapiens, UniProt Q9HC16); type: functional;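 further: Dose-response counterscreen measuring inhibition of APOBEC3G DNA deaminase activity, run while confirming APOBEC3A inhibitors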
[18] = target: T5, Calpain-2 catalytic subunit (Sus scrofa, UniProt P43367); experiment: pig calpain II inhibitor potency, dose response, biochemical, fluorogenic peptide substrate (AID 1420); type: functional
T5 sequence (P43367 whole entry): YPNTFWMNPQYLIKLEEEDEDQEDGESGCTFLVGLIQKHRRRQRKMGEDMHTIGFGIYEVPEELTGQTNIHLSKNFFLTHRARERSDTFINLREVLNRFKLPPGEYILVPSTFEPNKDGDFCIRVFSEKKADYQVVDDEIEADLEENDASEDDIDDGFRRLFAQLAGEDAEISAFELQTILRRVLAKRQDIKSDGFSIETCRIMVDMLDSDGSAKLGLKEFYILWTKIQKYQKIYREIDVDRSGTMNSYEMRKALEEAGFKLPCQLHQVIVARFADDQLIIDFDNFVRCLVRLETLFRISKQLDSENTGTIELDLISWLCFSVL

[19] = target: T6, Alkaline phosphatase, tissue-nonspecific isozyme (Homo sapiens, UniProt P05186)
T6 sequence (P05186 whole entry): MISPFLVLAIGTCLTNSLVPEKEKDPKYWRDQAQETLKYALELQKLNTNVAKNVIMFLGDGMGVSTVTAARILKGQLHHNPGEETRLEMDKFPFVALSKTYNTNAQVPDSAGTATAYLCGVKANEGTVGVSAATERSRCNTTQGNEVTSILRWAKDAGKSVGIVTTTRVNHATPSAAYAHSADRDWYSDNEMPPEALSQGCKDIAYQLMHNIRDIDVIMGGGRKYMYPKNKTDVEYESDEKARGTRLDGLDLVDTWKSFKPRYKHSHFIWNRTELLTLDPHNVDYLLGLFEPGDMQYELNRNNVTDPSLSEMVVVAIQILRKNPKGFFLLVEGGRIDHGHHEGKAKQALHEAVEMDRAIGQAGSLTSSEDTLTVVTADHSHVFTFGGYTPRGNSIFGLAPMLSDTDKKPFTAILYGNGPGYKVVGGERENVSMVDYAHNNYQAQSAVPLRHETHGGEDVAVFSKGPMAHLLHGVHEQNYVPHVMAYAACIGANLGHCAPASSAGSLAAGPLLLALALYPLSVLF

[20] = THP-1 cell cytotoxicity, dose response, cytotoxicity control for Vif-APOBEC3G degradation inhibitor project, THP-1 cells (AID 1117359); type: functional; details: Human immunodeficiency virus 1, THP-1

Sequence of Polyadenylate-binding protein 1 (P11940 whole entry): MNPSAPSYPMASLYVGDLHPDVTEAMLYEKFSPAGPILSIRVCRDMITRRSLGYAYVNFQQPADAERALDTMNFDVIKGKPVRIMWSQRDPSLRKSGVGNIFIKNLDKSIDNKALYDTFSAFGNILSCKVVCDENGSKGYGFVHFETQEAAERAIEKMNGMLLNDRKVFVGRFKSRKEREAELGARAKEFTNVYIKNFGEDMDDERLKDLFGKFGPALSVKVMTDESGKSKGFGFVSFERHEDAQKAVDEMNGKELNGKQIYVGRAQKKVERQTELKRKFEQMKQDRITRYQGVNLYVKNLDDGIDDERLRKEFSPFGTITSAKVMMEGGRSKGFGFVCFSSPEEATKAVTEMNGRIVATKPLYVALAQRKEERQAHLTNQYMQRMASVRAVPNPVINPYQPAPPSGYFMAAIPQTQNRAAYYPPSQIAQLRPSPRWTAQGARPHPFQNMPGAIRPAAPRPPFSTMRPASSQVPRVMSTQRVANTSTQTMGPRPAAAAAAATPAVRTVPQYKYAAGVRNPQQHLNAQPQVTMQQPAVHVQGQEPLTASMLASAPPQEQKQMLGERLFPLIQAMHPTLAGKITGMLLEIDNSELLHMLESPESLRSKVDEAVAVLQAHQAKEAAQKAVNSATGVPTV
Sequence of Lysosomal acid glucosylceramidase (P04062 whole entry): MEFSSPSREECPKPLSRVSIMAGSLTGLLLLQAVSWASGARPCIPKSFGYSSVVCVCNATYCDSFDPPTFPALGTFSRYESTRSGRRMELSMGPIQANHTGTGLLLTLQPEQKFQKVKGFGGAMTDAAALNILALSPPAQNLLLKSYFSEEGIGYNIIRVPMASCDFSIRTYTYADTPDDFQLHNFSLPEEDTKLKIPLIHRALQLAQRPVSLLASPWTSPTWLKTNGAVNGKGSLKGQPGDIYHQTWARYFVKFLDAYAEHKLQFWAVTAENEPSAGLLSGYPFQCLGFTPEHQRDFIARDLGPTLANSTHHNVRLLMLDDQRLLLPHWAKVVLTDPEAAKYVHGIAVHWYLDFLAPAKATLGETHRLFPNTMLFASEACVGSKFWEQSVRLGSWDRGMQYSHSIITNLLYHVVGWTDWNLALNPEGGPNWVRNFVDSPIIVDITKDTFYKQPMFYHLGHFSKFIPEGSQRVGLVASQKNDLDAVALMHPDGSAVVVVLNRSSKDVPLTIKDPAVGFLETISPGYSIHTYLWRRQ
Sequence of DNA dC->dU-editing enzyme APOBEC-3G (Q9HC16 whole entry): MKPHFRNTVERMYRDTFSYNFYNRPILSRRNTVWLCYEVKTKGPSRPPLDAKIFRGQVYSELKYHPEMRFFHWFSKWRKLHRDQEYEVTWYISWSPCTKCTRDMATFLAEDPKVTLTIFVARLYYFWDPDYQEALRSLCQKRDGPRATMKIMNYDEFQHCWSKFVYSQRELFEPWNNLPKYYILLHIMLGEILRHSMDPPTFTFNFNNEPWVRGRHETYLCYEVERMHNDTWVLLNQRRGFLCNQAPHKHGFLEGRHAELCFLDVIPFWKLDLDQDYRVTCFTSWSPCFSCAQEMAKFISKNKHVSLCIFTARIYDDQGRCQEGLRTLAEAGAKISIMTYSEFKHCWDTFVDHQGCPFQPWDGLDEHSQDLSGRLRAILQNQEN
Sequence of Paired box protein Pax-8 (Q06710 whole entry): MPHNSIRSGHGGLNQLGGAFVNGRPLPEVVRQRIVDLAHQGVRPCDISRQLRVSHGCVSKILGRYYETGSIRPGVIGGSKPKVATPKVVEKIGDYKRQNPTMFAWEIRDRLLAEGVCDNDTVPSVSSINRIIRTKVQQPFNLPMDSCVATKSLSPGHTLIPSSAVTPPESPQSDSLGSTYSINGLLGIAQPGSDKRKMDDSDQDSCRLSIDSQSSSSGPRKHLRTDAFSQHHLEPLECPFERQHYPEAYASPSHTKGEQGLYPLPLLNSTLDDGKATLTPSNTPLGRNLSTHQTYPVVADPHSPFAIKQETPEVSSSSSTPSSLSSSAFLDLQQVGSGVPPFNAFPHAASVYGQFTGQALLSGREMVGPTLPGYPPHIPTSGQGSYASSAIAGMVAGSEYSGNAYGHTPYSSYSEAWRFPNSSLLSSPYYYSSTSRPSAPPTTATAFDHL
Sequence of DNA dC->dU-editing enzyme APOBEC-3A (P31941 whole entry): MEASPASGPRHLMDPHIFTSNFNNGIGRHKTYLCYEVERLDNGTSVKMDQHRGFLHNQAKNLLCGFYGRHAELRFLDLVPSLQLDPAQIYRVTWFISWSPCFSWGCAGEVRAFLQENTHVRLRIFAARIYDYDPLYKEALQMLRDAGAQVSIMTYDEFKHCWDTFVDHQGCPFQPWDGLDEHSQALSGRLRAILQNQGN
Sequence of Luciferin 4-monooxygenase (P08659 whole entry): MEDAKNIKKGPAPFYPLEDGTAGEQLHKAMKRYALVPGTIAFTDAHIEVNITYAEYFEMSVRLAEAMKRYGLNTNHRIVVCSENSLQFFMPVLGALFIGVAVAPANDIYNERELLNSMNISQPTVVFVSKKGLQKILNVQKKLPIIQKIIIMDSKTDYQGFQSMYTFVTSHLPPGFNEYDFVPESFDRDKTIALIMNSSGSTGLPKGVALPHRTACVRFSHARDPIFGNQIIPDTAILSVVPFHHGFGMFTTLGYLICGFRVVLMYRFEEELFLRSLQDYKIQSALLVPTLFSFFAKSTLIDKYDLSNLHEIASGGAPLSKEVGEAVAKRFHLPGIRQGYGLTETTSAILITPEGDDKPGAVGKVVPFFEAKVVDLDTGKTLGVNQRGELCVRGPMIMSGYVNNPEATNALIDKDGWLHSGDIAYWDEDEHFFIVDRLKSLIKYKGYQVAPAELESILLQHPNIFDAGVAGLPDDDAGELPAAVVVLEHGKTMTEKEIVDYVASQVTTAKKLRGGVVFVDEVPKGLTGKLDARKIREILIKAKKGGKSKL
Sequence of Melanin-concentrating hormone receptor 1 (Q99705 whole entry): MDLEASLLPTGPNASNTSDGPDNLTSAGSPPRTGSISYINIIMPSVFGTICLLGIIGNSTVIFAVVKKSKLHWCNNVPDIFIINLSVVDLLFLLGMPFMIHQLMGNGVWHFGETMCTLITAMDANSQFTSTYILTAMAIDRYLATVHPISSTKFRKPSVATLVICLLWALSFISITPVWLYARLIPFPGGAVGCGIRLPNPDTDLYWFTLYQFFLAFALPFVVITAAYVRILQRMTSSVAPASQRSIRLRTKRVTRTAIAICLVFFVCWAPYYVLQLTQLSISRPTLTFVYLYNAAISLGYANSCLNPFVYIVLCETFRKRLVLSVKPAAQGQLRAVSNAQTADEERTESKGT

O=C(N/N=C/c1ccc(Cl)c([N+](=O)[O-])c1)c1cc(-c2ccc3c4c(cccc24)CC3)[nH]n1
EC50 (HEK293): > 35.4 µM (not active)
EC50 [1]: > 35.4 µM (not active)
EC50 [2]: > 112 µM (not active)
EC50 [3]: > 35.4 µM (not active)
EC50 [4]: > 112 µM (not active)
AC50 (Paired box protein Pax-8): 3.25 µM (active)

CC(C)(CO)NCc1c(OCc2ccc(Cl)cc2)ccc2ccccc12
IC50 [5]: 7.85 µM (active)
IC50 [6]: 9.31 µM (active)

O=C(O)Cn1cnc2c(S)ncnc21
EC50 [7]: > 55.7 µM (not active)
EC50 [8]: > 55.7 µM (not active)

Cn1c(Cc2ccccc2)nnc1SCC(=O)Nc1ccccc1N1CCOCC1
EC50 [9]: > 50 µM (not active)

COc1cc(/C=N\NC(=O)c2ccc(Cl)cc2)ccc1Oc1ccc([N+](=O)[O-])cn1
IC50 [10]: > 100 µM (inactive)
IC50 [11]: 9.22 µM (active)

COc1ccc2c(c1)c(=O)oc1cc(O)ccc12
EC50 [7]: > 55.7 µM (not active)
EC50 [8]: > 55.7 µM (not active)

CCn1c2ccccc2c2cc(NC(=O)CN(C)CC(=O)Nc3ccc(N4CCOCC4)cc3)ccc21
EC50 [12]: > 120 µM (not active)
EC50 (HEK293): > 35.4 µM (not active)
EC50 (H4): > 120 µM (not active)
EC50 [1]: > 35.4 µM (not active)
EC50 [13]: > 120 µM (not active)
CC50 [14]: 32.7 µM (active)
EC50 [3]: > 35.4 µM (not active)
CC50 [15]: 37.5 µM (active)

COc1ccc(CCCc2nnc(SCC(=O)Nc3ccc(C)c(C)c3)o2)cc1
IC50 [16]: 2.18 µM (active)
IC50 [10]: > 100 µM (inactive)
IC50 [11]: 6.61 µM (active)
IC50 [17]: 3.68 µM (active)
IC50 [18]: < 0.4 µM (not active)

COc1ccc(-c2nc3ccccn3c2CN2CCN(c3ccccc3F)CC2)cc1
EC50 [19]: 69.1 µM (not active)
CC50 [15]: > 40 µM (active)

CCOC(=O)CN1C(=O)CSc2ccccc21
EC50 [9]: > 10 µM (not active)

O=C(CCC(=O)NNc1nc2ccccc2c2nc(-c3ccccc3)nn12)NCCCN1CCOCC1
EC50 [19]: 70.8 µM (not active)
CC50 [20]: > 40 µM (active)
